Results reported in US20060211760A1, “Indolamide derivatives which possess glycogen phosphorylase inhibitory activity” (AstraZeneca AB, priority 2003, published 2006).

Assays:
conscious dogs = settings: following a glucagon challenge; cited from earlier work
hepatocytes = settings: cited from earlier work
db/db and ob/ob mice = db/db and ob/ob mice following treatment; cited from earlier work
[1] = target: T1, Human recombinant liver glycogen phosphorylase a (hrl GPa) (Homo sapiens, UniProt P06737); assay: glycogen phosphorylase inhibition, multienzyme coupled assay of glucose-1-phosphate production from glycogen; type: biochemical; settings: hrl GPa 20 nM, 6 hours at 30° C., 1% DMSO
T1 sequence (P06737 1-847): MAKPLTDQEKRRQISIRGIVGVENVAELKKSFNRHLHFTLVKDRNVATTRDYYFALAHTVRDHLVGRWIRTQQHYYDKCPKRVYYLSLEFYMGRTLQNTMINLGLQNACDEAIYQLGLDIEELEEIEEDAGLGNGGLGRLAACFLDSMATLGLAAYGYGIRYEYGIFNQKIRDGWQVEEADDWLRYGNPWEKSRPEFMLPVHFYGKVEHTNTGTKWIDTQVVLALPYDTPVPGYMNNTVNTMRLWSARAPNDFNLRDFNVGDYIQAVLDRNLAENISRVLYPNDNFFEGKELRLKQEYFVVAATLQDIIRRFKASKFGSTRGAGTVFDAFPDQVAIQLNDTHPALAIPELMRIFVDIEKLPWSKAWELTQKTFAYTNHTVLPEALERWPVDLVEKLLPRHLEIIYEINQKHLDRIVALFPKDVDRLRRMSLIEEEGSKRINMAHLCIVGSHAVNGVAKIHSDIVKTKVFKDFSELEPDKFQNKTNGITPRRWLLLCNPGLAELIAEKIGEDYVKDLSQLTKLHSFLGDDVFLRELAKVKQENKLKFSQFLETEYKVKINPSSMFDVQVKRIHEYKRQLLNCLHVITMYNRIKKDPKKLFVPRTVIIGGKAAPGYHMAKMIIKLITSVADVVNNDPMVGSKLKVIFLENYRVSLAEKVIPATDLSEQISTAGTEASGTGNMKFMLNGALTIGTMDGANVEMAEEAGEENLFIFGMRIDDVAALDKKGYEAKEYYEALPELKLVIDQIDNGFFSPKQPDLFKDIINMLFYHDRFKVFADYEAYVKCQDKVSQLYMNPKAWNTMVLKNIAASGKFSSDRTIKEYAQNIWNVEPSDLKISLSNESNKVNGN
Description: The activity of the compounds is determined by measuring the inhibitory effect of the compounds on glycogen degradation, the production of glucose-1-phosphate from glycogen is monitored by the multienzyme coupled assay, as described in EP 0 846 464 A2, general method of Pesce et al (Pesce, M A, Bodourian, S H, Harris, R C, and Nicholson, J F (1977) Clinical Chemistry 23, […]). The reactions were in 384well microplate format in a volume of 50 μl. The change in fluorescence due to the conversion of the co-factor NAD to NADH is measured at 340 nm excitation, 465nm emission in a Tecan Ultra Multifunctional Microplate Reader. The reaction is in 50 mM HEPES, 3.5 mM KH2PO4, 2.5 mM MgCl2, 2.5 mM ethylene glycol-bis(b-aminoethyl ether) N,N,N′,N′-tetraacetic acid, 100 mM KCl, 8 mM D-(+)-glucose pH7.2, containing 0.5 mM dithiothreitol, the assay buffer solution. Human recombinant liver glycogen phosphorylase a (hrl GPa) 20 nM is pre-incubated in assay buffer solution with 6.25 mM NAD, 1.25 mg type m glycogen at 1.25 mg ml^−1 the reagent buffer, for 30 minutes. […] The non-inhibited activity of GPa is measured in the presence of 10 μl 5% DMSO in assay buffer solution and maximum inhibition measured in the presence of 5 mgs ml^−1 N-ethylmaleimide. […] Relative Fluoresence Units (RFUs) are measured at 340 nm excitation, 465 nm emission. […]

Row | IC50 [1] [nM] | Compound | arterial plasma glucose (conscious dogs) | hepatic glucose output (conscious dogs) | glucagon stimulated glycogenolysis (hepatocytes) | glucose output (hepatocytes) | plasma glucose concentration (db/db and ob/ob mice)
1 |  | CCN1C(C)=C(C(=O)OC(C)C)C(c2ccccc2Cl)C2=C1COC2=O (stereo not drawn) [Bay R 3401] | reduced significantly | reduced significantly |  |  | 
2 |  | CN(C)C(=O)[C@H](O)[C@H](Cc1ccccc1)NC(=O)c1cc2cc(Cl)ccc2[nH]1 [CP91149] |  |  | reduce | reduce | reduced, in a dose related manner
3 |  | O=C(N[C@@H](Cc1ccc(F)cc1)C(=O)N1CCC(O)CC1)c1cc2cc(Cl)ccc2[nH]1 [CP320626] |  |  | reduce | reduce | reduced, in a dose related manner
4 | 868 | O=C(N[C@@H]1Cc2ccccc2[C@H]1CO)c1cc2cc(Cl)ccc2[nH]1 [Example 2, 5-Chloro-N-[(1R,2R)-1-(hydroxymethyl)-2,3-dihydro-1H-inden-2-yl]-indole-2-carboxamide] |  |  |  |  | 
